In US8088819B2, “Derivatives of substituted 3-phenyl-1-(phenylthienyl)propan-1-ones and of 3-phenyl-1-(phenylfuranyl) propan-1-ones, preparation and use” (priority 2006, dated 2012) one finds melting point, EC50 and Emax data, which are given here for 11 molecules.

Data set [1] addresses T1, hPPARalpha (Homo sapiens, UniProt Q07869).
T1 construct: expressed in transfected cells; host or cells: COS-7 (monkey kidney fibroblasts)
T1 sequence (Q07869 239-466 limits assumed): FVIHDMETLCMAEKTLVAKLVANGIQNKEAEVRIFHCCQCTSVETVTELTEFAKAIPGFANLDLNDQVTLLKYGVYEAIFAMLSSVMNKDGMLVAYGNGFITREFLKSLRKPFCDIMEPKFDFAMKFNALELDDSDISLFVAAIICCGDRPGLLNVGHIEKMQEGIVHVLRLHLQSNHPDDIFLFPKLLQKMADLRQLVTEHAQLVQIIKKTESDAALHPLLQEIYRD
As to the kind of experiment: PPAR activation: Gal4-hPPARα chimera luciferase transactivation in COS-7 cells, Method 1. It is filed as cell-based. The following applies: COS-7, 24 h; for Emax: maximum percentage response relative to the reference phenofibric acid, read-out: hPPARalpha % max. As for the experimental part: (§1) The activation of the PPARs was evaluated in vitro on a line of monkey kidney fibroblasts (COS-7) by measuring the transcriptional activity of chimeras constituted of the DNA binding domain of the Gal4 transcription factor of yeast and the ligand binding domain of the various PPARs. The compounds were tested at doses between 10^−5 and […] on the chimeras Gal4-PPARα, γ or δ, and the corresponding EC50 values were determined.
(§2) The COS-7 cells were obtained from the ATCC and were cultivated in DMEM medium supplemented with 10% (v/v) of fetal calf serum, 100 U/ml of penicillin (Gibco, Paisley, UK) and 2 mM of L-glutamine (Gibco, Paisley, UK). The cells were incubated at 37° C. in a humid atmosphere containing 5% CO2.
(§3) The plasmids Gal4(RE)_TkpGL3, pGal4-hPPARα, pGal4-hPPARγ, pGal4-hPPARδ and pGal4-φ are described in the literature (Raspe E et al., 1999). The constructs pGal4-hPPARα, pGal4-hPPARγ and pGal4-hPPARδ were obtained by cloning DNA fragments amplified by PCR corresponding to the DEF domains of the human nuclear receptors PPARα, PPARγ and PPARδ in the pGal4-φ vector.
(§4) The COS-7 cells in suspension were transfected with 150 ng of DNA per well, with a pGal4-PPAR/Gal4(RE)_TkpGL3 ratio of 1/10, in the presence of 10% fetal calf serum. The cells were seeded in 96-well plates (4×10^4 cells/well) and then incubated at 37° C. for 24 hours. Activation with the test compounds is carried out for 24 h at 37° C. in serum-free medium. At the end of the experiment, the cells were lysed and the luciferase activity was determined using the Steady-Lite™ HTS (Perkin Elmer) following the supplier's recommendations.

Data set [2] addresses T2, hPPARdelta (Homo sapiens, UniProt Q03181).
T2 construct: expressed in transfected cells; host or cells: COS-7 (monkey kidney fibroblasts)
T2 sequence (Q03181 211-439 limits assumed): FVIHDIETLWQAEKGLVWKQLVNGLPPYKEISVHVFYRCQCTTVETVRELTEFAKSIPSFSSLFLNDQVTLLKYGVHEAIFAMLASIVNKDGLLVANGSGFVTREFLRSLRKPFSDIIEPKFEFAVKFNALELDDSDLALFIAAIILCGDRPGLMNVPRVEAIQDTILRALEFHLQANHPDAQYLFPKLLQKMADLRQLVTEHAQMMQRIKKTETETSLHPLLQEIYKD
As to the kind of experiment: PPAR activation: Gal4-hPPARδ chimera luciferase transactivation in COS-7 cells, Method 1. It is filed as cell-based. The settings on record: COS-7, 24 h; for Emax: maximum percentage response relative to the reference GW501516, read-out: hPPARdelta % max. As for the experimental part: as §1, §2, §3, §4

For data set [3], the target named is T3, hPPARgamma (Homo sapiens, UniProt P37231).
T3 construct: expressed in transfected cells; host or cells: COS-7 (monkey kidney fibroblasts)
T3 sequence (P37231 238-503 limits assumed): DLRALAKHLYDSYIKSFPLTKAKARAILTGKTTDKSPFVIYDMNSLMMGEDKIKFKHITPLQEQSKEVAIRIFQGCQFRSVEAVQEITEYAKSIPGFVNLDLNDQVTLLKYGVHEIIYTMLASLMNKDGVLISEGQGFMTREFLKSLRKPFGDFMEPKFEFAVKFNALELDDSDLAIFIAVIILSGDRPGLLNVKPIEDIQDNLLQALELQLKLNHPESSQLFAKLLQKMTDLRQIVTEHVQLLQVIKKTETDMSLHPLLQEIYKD
Briefly: PPAR activation: Gal4-hPPARγ chimera luciferase transactivation in COS-7 cells, Method 1. It is filed as cell-based. The following applies: COS-7, 24 h; for Emax: maximum percentage response relative to the reference rosiglitazone, read-out: hPPARgamma % max. The protocol:
as §1, §2, §3, §4

The target of data set [4] is T3, hPPARgamma. As to the kind of experiment: PPAR activation: Gal4-hPPARγ chimera luciferase transactivation in COS-7 cells, Method 2. It is filed as cell-based. The following applies: COS-7, 24 h, Method 2; for Emax: maximum percentage response relative to the reference rosiglitazone, read-out: hPPARgamma % max; for EC50: 1% Ultroser, read-out: hPPARgamma EC50. As for the experimental part: The activation of the PPARs was evaluated in vitro on a line of monkey kidney fibroblasts (COS-7) by measuring the transcriptional activity of chimeras constituted of the DNA binding domain of the Gal4 transcription factor of yeast and the ligand binding domain of the various PPARs.
Only the application of the transfection stage is slightly different. The details are presented below.
(§5) The adherent COS-7 cells are transfected with 40 μg of DNA per 225 cm^2 dish, with a pGal4-PPAR/Gal4(RE)_TkpGL3 ratio of 1/10, in the presence of 10% fetal calf serum. The cells are then detached and seeded in the absence of serum in 384-well plates (2×10^4 cells/well) and incubated for 4 hours at 37° C. The compounds are then diluted in a 96-well plate and transferred to the 384-well plate. Activation with the test compounds is carried out for an additional 24 h at 37° C. in the presence of 1% of Ultroser™ lipid-free synthetic serum (Biosepra). These last 2 stages are automated using a Genesis Freedom 200™ station (Tecan). At the end of the experiment, the cells are lysed and the luciferase activity is determined using the Steady-Lite™ HTS (Perkin Elmer) following the supplier's recommendations.

Data set [5] has as its target T2, hPPARdelta. As to the kind of experiment: PPAR activation: Gal4-hPPARδ chimera luciferase transactivation in COS-7 cells, Method 2. The class given is cell-based. The following applies: COS-7, 24 h; for EC50: 1% Ultroser; for Emax: maximum percentage response relative to the reference GW501516, read-out: hPPARdelta % max. As for the experimental part: as §1
(§6) The principle, the cells and the plasmids used for example 5 were also employed in this example. Only the application of the transfection stage is slightly different. The details are presented below.
as §5

The target in data set [6] is T1, hPPARalpha. As to the kind of experiment: PPAR activation: Gal4-hPPARα chimera luciferase transactivation in COS-7 cells, Method 2. The class given is cell-based. The settings on record: COS-7, 24 h; for EC50: 1% Ultroser; for Emax: maximum percentage response relative to the reference phenofibric acid, read-out: hPPARalpha % max. The protocol: as §1, §6, §5

In turn, `CC(C)(Oc1ccc(CCC(=NO)c2ccc(-c3ccc(C(F)(F)F)cc3)s2)c(Cl)c1Cl)C(=O)O` (mixture of isomers) [Compound 49, 2-(2,3-dichloro-4-(3-(hydroxyimino)-3-(5-(4-(trifluoromethyl)-phenyl)thien-2-yl)propyl)phenoxy)-2-methylpropanoic acid] came in with a melting point of 135 to 136 °C. Further, in data set [1], the EC50 is 43 nM and the Emax turned out to be 46%. Besides, in data set [2], the EC50 turned out to be 45 nM and the Emax turned out to be 93%. Further, in data set [3], the midpoint of the response, the EC50, lay at 660 nM and the Emax was 24%.
Take `CC(C)(Oc1ccc(CCC(OCc2ccc(I)cc2)c2ccc(-c3ccc(C(F)(F)F)cc3)s2)c(Cl)c1Cl)C(=O)O` (stereo not drawn) [Compound 6, 2-(4-(3-(4-iodobenzyloxy)-3-(5-(4-(trifluoromethyl)phenyl)thien-2-yl)propyl)-2,3-dichlorophenoxy)-2-methylpropanoic acid]: the results for the Emax in data set [4], in data set [5] and in data set [6] were 55%, 92% and 41%, respectively. For the same molecule, the EC50 was 4110 nM in data set [4], 530 nM in data set [5] and 7860 nM in data set [6].
Regarding `CCC(Oc1ccc(CCC(=O)c2ccc(-c3ccc(C(F)(F)F)cc3)s2)c(Cl)c1Cl)C(=O)O` (stereo not drawn) [Compound 9, 2-(2,3-dichloro-4-(3-oxo-3-(5-(4-(trifluoromethyl)phenyl)thien-2-yl)propyl)phenoxy)butanoic acid], the melting point lay within 169 to 171 °C. For the same molecule, in data set [1], it took 6 nM to reach a half-maximal effect (EC50) and the Emax stood at 54%. In addition, in data set [2], the EC50 was 19 nM and the Emax came to 84%. For the same molecule, in data set [3], it took 280 nM to reach a half-maximal effect (EC50) and the Emax was determined as 41%.
In turn, `CC(C)(CCCOc1ccc(CCC(=O)c2ccc(-c3ccc(C(F)(F)F)cc3)s2)c(Cl)c1Cl)C(=O)O` [Compound 13, 5-(2,3-dichloro-4-(3-oxo-3-(5-(4-(trifluoromethyl)phenyl)thien-2-yl)propyl)phenoxy)-2,2-dimethylpentanoic acid] registered a melting point of 167 to 169 °C. In addition, in data set [1], the EC50 came to 977 nM and the Emax was 20%. For the same molecule, in data set [2], the Emax amounted to 1%. Also, in data set [3], it took 490 nM to reach a half-maximal effect (EC50) and the Emax came out at 58%.
On to `O=C(O)COc1ccc(CCC(=O)c2ccc(-c3ccc(C(F)(F)F)cc3)s2)c(Cl)c1Cl` [Compound 15, 2-(2,3-dichloro-4-(3-oxo-3-(5-(4-(trifluoromethyl)phenyl)thien-2-yl)propyl)phenoxy)acetic acid], for which the melting point lay in the range of 217 to 219 °C. Moreover, in data set [1], the midpoint of the response, the EC50, lay at 163 nM and the Emax turned out to be 46%. In data set [2], the EC50 was determined as 253 nM and the Emax turned out to be 88%. For the same molecule, in data set [3], the response was half-maximal at 5660 nM (EC50) and the Emax worked out at 32%.
In turn, `O=C(CCc1ccc(OC(C(=O)O)c2ccccc2)c(Cl)c1Cl)c1ccc(-c2ccc(C(F)(F)F)cc2)s1` (stereo not drawn) [Compound 17, 2-(2,3-dichloro-4-(3-oxo-3-(5-(4-(trifluoromethyl)phenyl)thien-2-yl)propyl)phenoxy)-2-phenylacetic acid] showed a melting point of 189 to 191 °C. Besides, in data set [1], the EC50 is 228 nM and the Emax stood at 5%. Also, the Emax in data set [2] was 0%. Besides, in data set [3], the EC50 amounted to 190 nM and the Emax was determined as 27%.
For `O=C(O)COc1ccc(CCC(OCc2ccccc2)c2ccc(-c3ccc(C(F)(F)F)cc3)s2)cc1F` (stereo not drawn) [Compound 27, 2-(4-(3-(benzyloxy)-3-(5-(4-(trifluoromethyl)phenyl)thien-2-yl)-propyl)-2-fluorophenoxy)acetic acid], the EC50 turned out to be 1310 nM in data set [1], 589 nM in data set [2] and 2820 nM in data set [3]. Moreover, the Emax in data set [1] amounted to 47%; in data set [2], 77%; in data set [3], 30%.
As for `CCC(Oc1ccc(CCC(O)c2ccc(-c3ccc(C(F)(F)F)cc3)s2)cc1F)C(=O)O` (stereo not drawn) [Compound 30, 2-(2-fluoro-4-(3-hydroxy-3-(5-(4-(trifluoromethyl)phenyl)thien-2-yl)propyl)phenoxy)butanoic acid], the figures for the Emax in data set [4], in data set [5] and in data set [6] were 45%, 80% and 51%, respectively. Also, the EC50 in data set [4] amounted to 3930 nM; in data set [5], 1530 nM; in data set [6], 50 nM.
As to `CCOC(CCc1ccc(OC(C)(C)C(=O)O)c(Cl)c1Cl)c1ccc(-c2ccc(C(F)(F)F)cc2)s1` (stereo not drawn) [Compound 41, 2-(2,3-dichloro-4-(3-ethoxy-3-(5-(4-(trifluoromethyl)phenyl)thien-2-yl)propyl)phenoxy)-2-methylpropanoic acid], the results for the Emax in data set [4], in data set [5] and in data set [6] were 36%, 76% and 49%, respectively. The EC50 in data set [4] is 1490 nM; in data set [5], 10 nM; in data set [6], 610 nM.
With `CC(C)(Oc1ccc(CCC(OCC2CCCCC2)c2ccc(-c3ccc(C(F)(F)F)cc3)s2)c(Cl)c1Cl)C(=O)O` (stereo not drawn) [Compound 42, 2-(2,3-dichloro-4-(3-(cyclohexylmethoxy)-3-(5-(4-(trifluoromethyl)phenyl)thien-2-yl)propyl)phenoxy)-2-methylpropanoic acid], the figures for the Emax in data set [4], in data set [5] and in data set [6] were 47%, 82.1% and 28%, respectively. In addition, the EC50 in data set [4] stood at 890 nM; in data set [5], 260 nM; in data set [6], 2000 nM.
Turning to `CCC(Oc1ccc(CCC(OCc2ccccc2)c2ccc(-c3ccc(C(F)(F)F)cc3)s2)cc1F)C(=O)O` (stereo not drawn) [Compound 70, 2-(4-(3-(benzyloxy)-3-(5-(4-(trifluoromethyl)phenyl)thien-2-yl)propyl)-2-fluorophenoxy)butanoic acid], the EC50 in data set [1] is 227 nM; in data set [2] it was 216 nM; in data set [3], 970 nM. In addition, the figures for the Emax in data set [1], in data set [2] and in data set [3] were 47%, 67% and 56%, respectively.
